Results: patent US10040791B2, “Isoxazole derivative as mutant isocitrate dehydrogenase 1 inhibitor” (Daiichi Sankyo Company, Limited, priority 2014, dated 2018)

Experiments:
[1] = system: HT-1080 cells expressing IDH1R132C; assay: 2-HG production inhibitory activity using HT1080 cell; assay type: cell-based, human; details: Homo sapiens, HT-1080; 2-HG production, HT1080 cells; read-out: Test Example 3 IC50
Protocol: Then, 100 μL of growth medium B was added to each well, further 25 μL of a solution of each compound diluted to a predetermined concentration with growth medium B was added to each well, and the cells were incubated at 37° C. for 2 days under 5% CO2. […] Then, 150 μL of ultrapure water was further added to each well, and the mixture was stirred by pipetting and stored at −20° C.
The preserved solutions were thawed at room temperature.

IDH1R132C = IDH1R132C (Homo sapiens (Human), UniProt O75874, R132C); assay: Inhibitory activity against IDH1R132C enzyme (NADPH detection, WST-8); assay type: biochemical; details: 10 nM, residual NADPH detected with WST-8, read-out: Test Example 1 IDH1 R132C IC50
Protocol: After transformation of Rosetta 2 (DE3) E. coli, the expression of the protein was induced with IPTG.
While NADPH-derived fluorescence was occasionally monitored, the reaction was terminated by the addition of 5 μL of 0.5 M EDTA before consumption of NADPH. 5 μL of WST-8 reagent (Dojindo Laboratories, #CK04) was further added and mixed therewith. 15 minutes later, the absorbance at 450 nm was measured using a plate reader (PerkinElmer, Inc., EnVision). The observed absorbance value reflects the amount of residual NADPH. From the absorbance data, the enzyme inhibitory activity of each compound at each concentration was calculated and analyzed using medical statistical analysis software GraphPad Prism to calculate an IC50 value.

IDH1R132C, sequence (O75874 whole entry R132C): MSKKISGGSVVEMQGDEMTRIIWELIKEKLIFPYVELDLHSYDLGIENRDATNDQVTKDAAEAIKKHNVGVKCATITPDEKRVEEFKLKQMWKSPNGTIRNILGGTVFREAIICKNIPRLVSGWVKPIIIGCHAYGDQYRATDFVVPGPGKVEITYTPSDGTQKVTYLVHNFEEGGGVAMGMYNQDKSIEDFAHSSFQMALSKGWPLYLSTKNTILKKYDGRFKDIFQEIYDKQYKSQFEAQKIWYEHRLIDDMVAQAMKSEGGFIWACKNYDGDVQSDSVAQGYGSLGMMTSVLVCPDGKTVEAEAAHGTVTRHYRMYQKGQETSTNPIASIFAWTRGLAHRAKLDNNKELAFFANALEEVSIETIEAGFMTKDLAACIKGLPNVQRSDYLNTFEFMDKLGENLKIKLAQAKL

SMILES	IC50 [1]	IC50 (IDH1R132C)
CCC1(c2onc(-c3c(Cl)cccc3Cl)c2C(=O)n2ccc3c(/C=C/C(=O)O)cccc32)COC1 [Example 5, (2E)-3-(1-{[3-(2,6-Dichlorophenyl)-5-(3-ethyloxetan-3-yl)-1,2-oxazol-4-yl]carbonyl}-1H-indol-4-yl)prop-2-enoic acid]	42 nM	
O=C(O)/C=C/c1cccc2c1ccn2C(=O)c1c(-c2c(Cl)cc(Cl)cc2Cl)noc1C1(F)COC1 [Example 6, (2E)-3-(1-{[5-(3-Fluorooxetan-3-yl)-3-(2,4,6-trichlorophenyl)-1,2-oxazol-4-yl]carbonyl}-1H-indol-4-yl)prop-2-enoic acid]	459 nM	151 nM
CC(C)(O)c1onc(-c2c(Cl)cccc2Cl)c1C(=O)n1ccc2c(/C=C/C(=O)O)cccc21 [Example 7, (2E)-3-(1-{[3-(2,6-Dichlorophenyl)-5-(2-hydroxypropan-2-yl)-1,2-oxazol-4-yl]carbonyl}-1H-indol-4-yl)prop-2-enoic acid]	787 nM	152 nM
CC1(c2onc(-c3c(Cl)cc(Cl)cc3Cl)c2C(=O)n2ccc3c(/C=C/C(=O)O)ccnc32)COC1 [Example 9, (2E)-3-(1-{[5-(3-Methyloxetan-3-yl)-3-(2,4,6-trichlorophenyl)-1,2-oxazol-4-yl]carbonyl}-1H-pyrrolo[2,3-b]pyridin-4-yl]prop-2-enoic acid]	1270 nM	107 nM
COC1(c2onc(-c3c(F)cc(Cl)cc3Cl)c2C(=O)n2cc(C)c3c(/C=C/C(=O)O)cccc32)CCC1 [Example 14, (2E)-3-(1-{[3-(2,4-Dichloro-6-fluorophenyl)-5-(1-methoxycyclobutyl)-1,2-oxazol-4-yl]carbonyl}-3-methyl-1H-indol-4-yl]prop-2-enoic acid]	32 nM	110 nM
COC1(c2onc(-c3c(F)cc(Cl)cc3Cl)c2C(=O)n2cc3c4c(cccc42)/C(=C/C(=O)O)CC3)CCC1 [Example 15, (2E)-[1-{[3-(2,4-Dichloro-6-fluorophenyl)-5-(1-methoxycyclobutyl)-1,2-oxazol-4-yl]carbonyl}-3,4-dihydrobenzo[cd]indol-5(1H)-ylidene]ethanoic acid]	37 nM	106 nM
Cc1cn(C(=O)c2c(-c3ccc(Cl)c(F)c3Cl)noc2C(C)(C)F)c2cccc(/C=C/C(=O)O)c12 [Example 17]	242 nM	201 nM
CC(C)(F)c1onc(-c2ccc(Cl)c(F)c2Cl)c1C(=O)n1cc2c3c(cccc31)/C(=C/C(=O)O)CC2 [Example 20, (2E)-[1-{[3-(2,4-Dichloro-3-fluorophenyl)-5-(2-fluoropropan-2-yl)-1,2-oxazol-4-yl]carbonyl}-3,4-dihydrobenzo[cd]indol-5(1H)-ylidene]ethanoic acid]	435 nM	267 nM
CC(C)c1onc(-c2c(Cl)cccc2Cl)c1C(=O)n1ccc2c(/C=C/C(=O)O)cccc21 [Example 23, (2E)-3-(1-{[3-(2,6-Dichlorophenyl)-5-(propan-2-yl)-1,2-oxazol-4-yl]carbonyl}-1H-indol-4-yl)prop-2-enoic acid]	709 nM	75 nM
CC(C)(C)c1onc(-c2c(Cl)cccc2Cl)c1C(=O)n1ccc2c(/C=C/C(=O)O)cccc21 [Example 24, (2E)-3-(1-{[5-(tert-Butyl)-3-(2,6-dichlorophenyl)-1,2-oxazol-4-yl]carbonyl}-1H-indol-4-yl)prop-2-enoic acid]	255 nM	182 nM
Cc1cn(C(=O)c2c(-c3c(Cl)cccc3Cl)noc2C(C)C)c2cccc(/C=C/C(=O)O)c12 [Example 25, (2E)-3-(1-{[3-(2,6-Dichlorophenyl)-5-(propan-2-yl)-1,2-oxazol-4-yl]carbonyl}-3-methyl-1H-indol-4-yl)prop-2-enoic acid]	248 nM	326 nM
CC(C)c1onc(-c2c(Cl)cc(Cl)cc2Cl)c1C(=O)n1ccc2c(/C=C/C(=O)O)cccc21 [Example 26, (2E)-3-(1-{[5-(Propan-2-yl)-3-(2,4,6-Trichlorophenyl)-1,2-oxazol-4-yl]carbonyl}-1H-indol-4-yl)prop-2-enoic acid]	248 nM	253 nM
COC(C)(C)c1onc(-c2c(Cl)cccc2Cl)c1C(=O)n1ccc2c(/C=C/C(=O)O)cccc21 [Example 27, (2E)-3-(1-{[3-(2,6-Dichlorophenyl)-5-(2-methoxypropan-2-yl)-1,2-oxazol-4-yl]carbonyl}-1H-indol-4-yl)prop-2-enoic acid]	128 nM	160 nM
CC(C)c1onc(-c2c(Cl)ccc(F)c2Cl)c1C(=O)n1ccc2c(/C=C/C(=O)O)cccc21 [Example 28, (2E)-3-(1-{[3-(2,6-Dichloro-3-fluorophenyl)-5-(propan-2-yl)-1,2-oxazol-4-yl]carbonyl}-1H-indol-4-yl)prop-2-enoic acid]	401 nM	90 nM
Cc1cn(C(=O)c2c(-c3c(Cl)ccc(F)c3Cl)noc2C(C)C)c2cccc(/C=C/C(=O)O)c12 [Example 30, (2E)-3-(1-{[3-(2,6-Dichloro-3-fluorophenyl)-5-(propan-2-yl)-1,2-oxazol-4-yl]carbonyl}-3-methyl-1H-indol-4-yl)prop-2-enoic acid]	350 nM	114 nM
COC(C)(C)c1onc(-c2c(Cl)cc(Cl)cc2Cl)c1C(=O)n1ccc2c(/C=C/C(=O)O)cccc21 [Example 31, (2E)-3-(1-{[5-(2-Methoxypropan-2-yl)-3-(2,4,6-trichlorophenyl)-1,2-oxazol-4-yl]carbonyl}-1H-indol-4-yl)prop-2-enoic acid]	24 nM	57 nM
CC(C)(C)c1onc(-c2c(Cl)cc(Cl)cc2Cl)c1C(=O)N1CCc2c(/C=C/C(=O)O)cccc21 [Example 32, (2E)-3-(1-{[5-(tert-Butyl)-3-(2,4,6-trichlorophenyl)-1,2-oxazol-4-yl]carbonyl}-2,3-dihydro-1H-indol-4-yl)prop-2-enoic acid]	413 nM	176 nM
CC(C)(C)c1onc(-c2c(Cl)cccc2Br)c1C(=O)n1ccc2c(/C=C/C(=O)O)cccc21 [Example 39, (2E)-3-(1-{[3-(2-Bromo-6-chlorophenyl)-5-(tert-butyl)-1,2-oxazol-4-yl]carbonyl}-1H-indol-4-yl)prop-2-enoic acid]	389 nM	168 nM
Cc1cc(Cl)cc(Cl)c1-c1noc(C(C)(C)C)c1C(=O)n1ccc2c(/C=C/C(=O)O)cccc21 [Example 41, (2E)-3-(1-{[5-(tert-Butyl)-3-(2,4-dichloro-6-methylphenyl)-1,2-oxazol-4-yl]carbonyl}-1H-indol-4-yl)prop-2-enoic acid]	254 nM	280 nM
CC(C)(F)c1onc(-c2c(Cl)cc(Cl)cc2Cl)c1C(=O)n1cc(F)c2c(/C=C/C(=O)O)cccc21 [Example 45, (2E)-3-(3-Fluoro-1-{[5-(2-fluoropropan-2-yl)-3-(2,4,6-trichlorophenyl)-1,2-oxazol-4-yl]carbonyl}-1H-indol-4-yl)prop-2-enoic acid]	60 nM	114 nM
NC[C@H]1CCN(c2onc(-c3c(Cl)cccc3Cl)c2C(=O)n2ccc3c(/C=C/C(=O)O)cccc32)C1 [Example 139, (2E)-3-[1-({5-[(3R)-3-(Aminomethyl)pyrrolidin-1-yl]-3-(2,6-dichlorophenyl)-1,2-oxazol-4-yl}carbonyl)-1H-indol-4-yl]prop-2-enoic acid]	339 nM	
NC[C@@H]1CCN(c2onc(-c3c(Cl)cccc3Cl)c2C(=O)n2ccc3c(/C=C/C(=O)O)cccc32)C1 [Example 140]		1040 nM
